Reference: patent US20140086977A1, “TIGHT JUNCTIONS MODULATORS” (THE UNIVERSITY OF MANCHESTER, priority 2011, published 2014)
“Also recorded” adds a separate entry of the source.

Experiments:
[1] = test system: Normal human epidermal keratinocytes (NHEK); experiment: TEER in NHEK treated with plant polyphenols; format: cell-based; conditions: for Effect on TEER at day four vs untreated control: 100 μM myricetin or Kaempferol, quercetin concentration not stated, Mann Whitney U test
Procedure: Normal human epidermal keratinocytes (NHEK) were purchased from Promocell (Heidelberg, Germany) and grown on Thincerts™ in proprietary medium containing 0.06 mM calcium chloride. ‘Thincerts’ are small chambers containing a filter on which the cells are grown. The Thincert™ is housed within a conventional 12 well tissue culture plate. This arrangement allows treatment of the cells from either the basal or apical side.
When the cells were confluent, the medium was replaced with new medium but containing 1.8 mM calcium chloride. This induces tight junction formation in NHEK. In experiments where plant polyphenols were tested, a known volume of the plant polyphenol (dissolved in vehicle at a known concentration) was added to both apical and basal chambers of the Thincert™ at the same time as the medium was replaced. In this experiment the plant polyphenols quercetin, Myricetin and Kaempferol were tested.
Tight junctions form over 4 days and this was monitored by measuring the transepithelial electrical resistance (TEER) using an EVOM (world precision instruments). TEER was measured every 24 hours post addition of the test polyphenols and the TEER of control untreated cell monolayers was compared to that of treated cell monolayers.
The methodology set out in Example 6 was repeated, using quercetin at different concentrations. The results are shown in FIG. 8 in which the first bar represents the results for control—untreated cells, the second bar represents the results for cells treated with 100 μM quercetin and the third bar represents the results for cells treated with 10 μM quercetin (see key below). The y-axis represents TEER at 4 days (Ohms.cm^2).

[2] = test system: claudin 1; experiment: Claudin 1 protein levels in NHEK by immunoblot; format: cell-based, human; conditions: for Effect on claudin 1 protein levels: 24-96 hours post treatment, immunoblot
Procedure: Normal primary human keratinocytes (NHEK) were grown in proprietary medium containing 0.6 mM calcium chloride. When the cells reached confluence they were placed in medium containing 1.8 mM calcium chloride (calcium switch) and either cis-UCA, irradiated trans-UCA, unirradiated trans-UCA or control medium. Cells were the incubated for 96 hours during which time TJs form. At 24, 48, 72 or 96 hours post treatment, cells were harvested and claudin 1 levels analysed by immunoblot.
NHEK (growing as described above) were treated with different concentrations of cis-UCA for 48 hours after which claudin 1 levels were examined using immunoblotting.
(§1) Exposure of human skin to solar simulated ultraviolet radiation (UVR) transiently impairs skin barrier function (SBF) which recovers over a period of 2-14 days. […] Trans-urocanic acid (trans-UCA) is a major epidermal chromophore located in the stratum corneum and exposure of human skin to UVR photoisomerises trans-UCA to cis-UCA. In a previous Affymetrix study, the Cld-1 encoding gene, CLDN1, was listed as one of several markers induced by cis- but not trans-UCA, in normal human epidermal keratinocytes (NHEK) (Kaneko et al, J Immunol 2008, 181, 217-24). We therefore examined UCA isomer-dependent changes in Cld-1 protein expression (assessed by immunoblotting) and TJ function (assessed as transepithelial electrical resistance; TEER) in differentiated NHEK in vitro.

[3] = test system: Normal primary human keratinocytes (NHEK); experiment: Transepithelial electrical resistance (TEER) in NHEK after calcium switch, UCA isomers; format: cell-based; conditions: for Effect on TEER: differentiated NHEK vs untreated cells
Excerpt: Transepithelial electrical resistance (TEER) measurements are used in epithelial biology as a marker of TJ integrity. Electrical resistance is a measure of how easily ions can pass through a particular transport route. The higher the resistance the harder it is for ions to pass. Whilst the TEER of a cell monolayer is a function of both transcellular and paracellular transport routes, the value of TEER is, however, dominated by the contribution from the paracellular route. TEER of monolayers can be measured using an Epithelial Voltmeter (for example EVOM from WPI Ltd). This instrument passes a current across a monolayer of cells and calculates the resistance according to Ohm's law (V=IR, where V is potential difference, I is current and R is resistance). Therefore increased TEER means […] TJ function. Preferably TEER measurements are carried out at room temperature.
Normal primary human keratinocytes (NHEK) were grown on Thincerts™ in medium containing 0.6 mM calcium until the cells were confluent. TJ formation was the induced by calcium switch and 25 ug/ml cis-UCA was added to the cells which were incubated for 96 hours and the transepithelial electrical resistance (TEER) measured every 24 hours post calcium switch.
as §1

[4] = test system: claudins 1 and 4, occludin and ZO-1 mRNA; experiment: Real-time PCR of TJ gene message levels in NHEK; format: cell-based, human; conditions: 25 ug/ml, 48 hours, vs non-treated keratinocytes
Procedure: Normal primary human keratinocytes (NHEK) were grown in proprietary medium containing 0.6 mM calcium chloride. When the cells reached confluence they were placed in medium containing […] calcium chloride (calcium switch) and 25 ug/ml cis-UCA was added. Cells were incubated for 48 hours and message levels for the TJ genes claudins 1 and 4, occludin and ZO-1 were quantified using real-time PCR using non-treated keratinocytes as a control (FIG. 3).

O=c1c(O)c(-c2ccc(O)cc2)oc2cc(O)cc(O)c12 [Kaempferol]
Time to barrier formation ([1]; 100 μM): reduces
Effect on TEER at day four vs untreated control [1]: increases

O=c1c(O)c(-c2cc(O)c(O)c(O)c2)oc2cc(O)cc(O)c12 [Myricetin]
Effect on TEER at day four vs untreated control [1]: significantly increase

O=C(O)/C=C\c1c[nH]cn1 [cis-UCA, cis-urocanic acid]
Effect on claudin 1 protein levels [2]: time dependent increase
Effect on claudin 1 protein levels ([2]; listed as Cis-UCA): time and concentration dependent increase
Dose dependence of claudin 1 protein levels ([2]; 48 hours, greatest at 25 ug/ml): dose dependent increase
Increase in Cld-1 protein ([2]; maximal 48 h post-treatment with 25 μg/ml, n=4, p=0.02): ~3 fold
TEER higher than in untreated cells ([3]; 25 ug/ml cis-UCA, up to 96 hours post calcium switch): approximately 150 ohms.cm^2
Effect on TEER [3]: higher
TEER higher than in untreated cells ([3]; differentiated NHEK, n=6, p=0.004): ~150 ohms/cm^2
Levels of mRNA for claudins 1, 4, occludin and ZO-1 [4]: increases

O=c1c(O)c(-c2ccc(O)c(O)c2)oc2cc(O)cc(O)c12 [quercetin]
Effect on TEER at day four vs untreated control [1]: significantly increase
Dose dependence of TEER at 4 days ([1]; 100 μM vs 10 μM quercetin): higher quantities of quercetin have a more beneficial effect

O=C(O)/C=C/c1cnc[nH]1 [trans-UCA, trans-urocanic acid, reference compound]
Effect on claudin 1 protein levels [2]: no effect
Effect on claudin 1 protein levels ([2]; listed as unirradiated trans-UCA): does not; also recorded: no effect
Effect on TEER [3]: no effect
